Data set [1] is described as follows: Serum AST and ALT assays. Format: in vivo, mice. How it is done:
To assay the activities of ALT and AST, mouse serum was prepared by centrifuging blood at 2500 × g for 15 minutes at 4°C. Enzyme activities were determined, according to the manufacturer's instructions. […]
the first injection of the peptides. […]
necrosis in tail vein upon injection.
“Slow” means not moving around in the cage.
“Normal” means normally moving around in the cage.
(§1) Abbreviation: NR; no regression, ND; not determined. […]
aminotransferase) in mice treated with TU17:MTD
Treatment Serum aminotransferase (karman units/ml)
White blood Hemoglobin Platelets Neutrophils Lymphocyts Monocytes
Treatments cells (g/dl) (×103 cell/μl) (%) (%) (%)

The subject of data set [2] is BALB/c mice. As to the kind of experiment: Toxicity and movement activity after i.v. injection. The following applies: for Movement Activities: BALB/c (around 20 gm) mice, i.v. single dose 75 μl of 1 mM, within 30 minutes; for toxicity by mouse movements: BALB/c mice, i.v. single dose 75 μl of 1 mM per mouse, movements within 30 minutes, observed up to one week. How it is done: To design a MTD peptide anti-cancer drug, the MTD peptide was fused to various known tumor-homing motifs through its N-terminal or C-terminal region, and a linker was introduced between these two motifs to impart flexibility and minimize steric hindrance (Figure 1A, Supplementary Table S1). The MTD peptides fused with tumor-homing motifs (hereafter designated TU:MTDs) were synthesized as linear or cyclic entities using L-amino acids (Supplementary Table S1), and were evaluated for their killing activity using CT26 cells in vitro (Supplementary Figure S1). […] Thus, BALB/c mouse movements were also evaluated within 30 minutes of the intravenous injection of a single dose of 75 μl of 1 mM TU:MTDs per mouse. […] We also searched for a TU:MTD with a potent in vivo effect by observing tumor volumes in three BALB/c mice bearing CT26 adenocarcinoma that were injected with 100 μl of 1 mM TU:MTDs per day for 2 or 3 consecutive days (Figure 1B). […] The tumor-homing motif of TU17:MTD has a “RPARPAR” sequence containing the C-end rule (CendR) element that has known to bind to neuropilin-1 (NRP-1), although the “RPARPAR” sequence is located at the N-terminus of the MTD rather than at the C-terminus. […]
1 mM) were i.v. injected into BALB/c (around 20 gm) mice at a single dose. “Slow” means not moving around in the cage.
“Normal” means normally moving around in the cage. “Toxic” means necrosis in tail vein within 2 ~ 3 days after injection.
as §1

The test system of data set [3] is CT26 cells. Description: XTT cell viability / killing activity in CT26 cells. The data set is classed as cell-based. The following applies: CT26 cells, TU:MTDs 0 ~ 20 μM, 30 minutes, XTT. How it is done:
Figure 1 Identification of TU17:MTD as a tumor targeting peptide (A) Schematic diagram of the fusion peptides consisting of the tumor-homing motif, linker, and mitochondrial targeting domain (MTD). (B) Tumors were generated over 2 weeks after s.c. injection of CT26 cells into the backs of BALB/c mice. When tumor volumes reached palpable size, the indicated TU:MTDs (100 μl of 1 mM TU:MTDs) or PBS were administrated i.v. twice or three times. […] Arrows indicate the points of peptide injection. P values < 0.02 (control group vs TU17:MTD at day 5, 6, 7, 8, and 9) (C) HCT116, HeLa, A549, MCF-7, PC3, and BJAB cells were treated with TU17:MTD (0 ~ 20 μM) for 30 minutes, and cell viability was monitored using XTT assays. *P < 0.05 (D) Primary splenocytes and macrophages were treated with TU17:MTD (0 ~ 20 μM) for 30 minutes, and cell viability was monitored by XTT assay. *P < 0.05 (E) CT26 cells were treated with R8:MTD, TU17:MTD, TU17-2:MTD or TU17:MTD^4A (0 ~ 40 μM) for 4 hours, and cell viability was monitored by XTT assay. Results in C to E are expressed as means ± SD (triplicates), and are representative of at least two independent experiments. P values are for experimental groups versus controls and were calculated using Dunnett's t-test. *P < 0.05.
Figure 5 Anti-NRP-1 antibody blocks TU17:MTD-induced necrosis (A) CT26 cells (2 × 10^4 cells/cm^2) were treated with TU17:MTD-FAM (500 nM) peptide or TU17^mut:MTD (500 nM) peptide. […] The viability was measured by using the XTT assay. *P < 0.05, **P < 0.01. […] The percentage of FAM-positive cells (%) were determined (n = over 200 cells). *P < 0.05, ***P < 0.001.
Cells were cultured in 96 well plates (2 × 10^5) overnight and treated with TU:MTDs. Cell viabilities were assessed using a XTT-based colorimetric assay kit, according to the manufacturer's instructions. […]
Supplementary FigureS1: Killing activity of TU:MTDs in CT26 cells. CT26 cells were treated with TU:MTDs (0 ~ 20 μM) for 30 minutes, and cell viability was monitored using XTT assays. […]
Background: Tetrazolium assays rely on reduction of a dye to a coloured formazan, in cell work by metabolically active cells.

The mark [4] stands for this setting: CCl4-treated mice, chemically-induced liver damage model.

Here are results for 17 molecules from paper PMC5078025, “Necrosis-inducing peptide has the beneficial effect on killing tumor cells through neuropilin (NRP-1) targeting” (Oncotarget, 2016).

Bridge positions count the residues as written; N and C are the ends. Ends that are not written are not given here. Peptide text beside a SMILES is read from it.

As to `ClC(Cl)(Cl)Cl` [CCl4], in data set [1] (setting [4]), the “Serum aminotransferase ALT” value worked out at 558.8 ± 7.2 karman units/ml and the “Serum aminotransferase AST” value was found to be 42.8 ± 3.7 karman units/ml. The “serum levels of AST and ALT” value in data set [1] (mice) is given as “substantially higher”.
For the molecule `CC[C@H](C)[C@H](NC(=O)[C@H](CC(C)C)NC(=O)[C@H](CC(N)=O)NC(=O)[C@H](CC(C)C)NC(=O)[C@H](CC(C)C)NC(=O)[C@H](CCCCN)NC(=O)CNC(=O)CNC(=O)[C@H](CS)NC(=O)[C@H](CCCNC(=N)N)NC(=O)CNC(=O)[C@H](CC(N)=O)NC(=O)[C@@H](N)CS)C(=O)N[C@@H](CO)C(=O)N[C@@H](CCCCN)C(=O)N[C@@H](CC(C)C)C(=O)N[C@@H](Cc1ccccc1)C(=O)O` [TU1:MTD] (H-CNGRCGGKLLNLISKLF-OH), in data set [2], the “Movement Activities” value is listed as “Slow” and the “toxicity by mouse movements” value was “toxic”.
On to `CC[C@H](C)[C@H](NC(=O)[C@H](CC(C)C)NC(=O)[C@H](CC(N)=O)NC(=O)[C@H](CC(C)C)NC(=O)[C@H](CC(C)C)NC(=O)[C@H](CCCCN)NC(=O)CNC(=O)CNC(=O)[C@H](CS)NC(=O)CNC(=O)[C@H](CCCNC(=N)N)NC(=O)[C@@H](NC(=O)[C@H](CCCNC(=N)N)NC(=O)[C@H](CCCCN)NC(=O)[C@H](CC(N)=O)NC(=O)CNC(=O)[C@@H](N)CS)[C@@H](C)O)C(=O)N[C@@H](CO)C(=O)N[C@@H](CCCCN)C(=O)N[C@@H](CC(C)C)C(=O)N[C@@H](Cc1ccccc1)C(=O)O` [TU3:MTD] (H-CGNKRTRGCGGKLLNLISKLF-OH), for which, in data set [2], the “Movement Activities” value is recorded as “Normal” and the “toxicity by mouse movements” value is “no apparent toxicities”.
On the same counts, the results for `CC[C@H](C)[C@H](NC(=O)[C@H](CC(C)C)NC(=O)[C@H](CC(N)=O)NC(=O)[C@H](CC(C)C)NC(=O)[C@H](CC(C)C)NC(=O)[C@H](CCCCN)NC(=O)[C@H](CS)NC(=O)[C@H](CC(=O)O)NC(=O)[C@@H]1CCCN1C(=O)CNC(=O)[C@H](CCCCN)NC(=O)[C@H](CC(=O)O)NC(=O)[C@H](CCCNC(=N)N)NC(=O)CNC(=O)[C@@H](N)CS)C(=O)N[C@@H](CO)C(=O)N[C@@H](CCCCN)C(=O)N[C@@H](CC(C)C)C(=O)N[C@@H](Cc1ccccc1)C(=O)O` [TU6:MTD] (H-CGRDKGPDCKLLNLISKLF-OH) are “Normal” and “no apparent toxicities”.
Turning to `CC[C@H](C)[C@H](NC(=O)[C@H](CC(C)C)NC(=O)[C@H](CC(N)=O)NC(=O)[C@H](CC(C)C)NC(=O)[C@H](CC(C)C)NC(=O)[C@@H](N)CCCCN)C(=O)N[C@@H](CO)C(=O)N[C@@H](CCCCN)C(=O)N[C@@H](CC(C)C)C(=O)N[C@@H](Cc1ccccc1)C(=O)N[C@@H](CS)C(=O)NCC(=O)N[C@@H](CCCNC(=N)N)C(=O)N[C@@H](CC(=O)O)C(=O)N[C@@H](CCCCN)C(=O)NCC(=O)N1CCC[C@H]1C(=O)N[C@@H](CC(=O)O)C(=O)N[C@@H](CS)C(=O)O` [TU7:MTD] (H-KLLNLISKLFCGRDKGPDC-OH), the “toxicity by mouse movements” value in data set [2] was “no apparent toxicities”.
Consider `CC[C@H](C)[C@H](NC(=O)[C@H](CC(C)C)NC(=O)[C@H](CC(N)=O)NC(=O)[C@H](CC(C)C)NC(=O)[C@H](CC(C)C)NC(=O)[C@@H](N)CCCCN)C(=O)N[C@@H](CO)C(=O)N[C@@H](CCCCN)C(=O)N[C@@H](CC(C)C)C(=O)N[C@@H](Cc1ccccc1)C(=O)N[C@@H](CS)C(=O)NCC(=O)N[C@@H](CCCNC(=N)N)C(=O)N[C@@H](CC(=O)O)C(=O)N[C@@H](CCCCN)C(=O)N[C@@H](CCCNC(=N)N)C(=O)N[C@@H](CC(C)C)C(=O)N[C@@H](Cc1ccc(O)cc1)C(=O)N[C@@H](CC(=O)O)C(=O)N[C@@H](CS)C(=O)O` [TU8:MTD] (H-KLLNLISKLFCGRDKRLYDC-OH), for which, in data set [3], the “cytotoxicity to CT26 cells in vitro” value is listed as “not cytotoxic”. Also, in data set [2], the “Movement Activities” value is reported as “Dead” and the “toxicity by mouse movements” value was “highly toxic”.
For `CC[C@H](C)[C@H](NC(=O)[C@H](CC(C)C)NC(=O)[C@H](CC(N)=O)NC(=O)[C@H](CC(C)C)NC(=O)[C@H](CC(C)C)NC(=O)[C@H](CCCCN)NC(=O)[C@H](CS)NC(=O)[C@H](CC(=O)O)NC(=O)[C@@H]1CCCN1C(=O)CNC(=O)[C@H](CCCCN)NC(=O)[C@H](CC(=O)O)NC(=O)CNC(=O)[C@H](CCCNC(=N)N)NC(=O)[C@@H](N)CS)C(=O)N[C@@H](CO)C(=O)N[C@@H](CCCCN)C(=O)N[C@@H](CC(C)C)C(=O)N[C@@H](Cc1ccccc1)C(=O)O` [TU9:MTD] (H-CRGDKGPDCKLLNLISKLF-OH), in data set [2], the “Movement Activities” value was “Normal” and the “toxicity by mouse movements” value is recorded as “no apparent toxicities”.
Take CGKRKGGKLLNLISKLF [TU19:MTD]: in data set [2], the “Movement Activities” value was “Normal” and the “toxicity by mouse movements” value is “no apparent toxicities”.
Taken in the same sequence, the figures for CRGDKGGKLLNLISKLF [TU21:MTD] were “Slow” and “toxic”.
Taken in the same sequence, the figures for “KLLNLISKLFCRGDKGPDC (disulfide 11-19 (inferred)) [TU10:MTD]” were “Slow” and “toxic”.
Taken in the same sequence, the figures for KLLNLISKLFGGCGKRK [TU20:MTD] were “Normal” and “no apparent toxicities”.
Regarding KLLNLISKLFGGCRGDK [TU22:MTD], in data set [2], the “Movement Activities” value is on record as “Normal” and the “toxicity by mouse movements” value is “no apparent toxicities”.
Regarding KLLNLISKLFGGRLLRLLRLLR [TU16:MTD], in data set [2], the “Movement Activities” value is “Normal” and the “toxicity by mouse movements” value was “no apparent toxicities”.
On to KLLNLISKLFGGRPARPAR [TU18:MTD], for which, in data set [2], the “Movement Activities” value is given as “Slow” and the “toxicity by mouse movements” value was “toxic”.
As for RLLRLLRLLRGGKLLNLISKLF [TU15:MTD], in data set [2], the “Movement Activities” value was “Slow” and the “toxicity by mouse movements” value was “toxic”.
On the same counts, the results for WDLAWMFRLPVGKLLNLISKLF [TU5:MTD] are “Normal” and “no apparent toxicities”.
WIFPWIQLKLLNLISKLF [TU4:MTD]: in data set [2], the “Movement Activities” value was “Slow” and the “toxicity by mouse movements” value is “toxic”.
